From patent US6534496B1, “Thermogenic composition and benzazepine thermogenics” (Takeda Chemical Industries, Inc., priority 1997, dated 2003) come the findings set out here.

For orientation: melting point means the temperature, or range, at which the solid turns liquid.

Structures can show the parent of a compound that is named as a salt.

The compound `O=C(CCCCC1CCN(Cc2ccccc2)CC1)c1ccc2c(c1)CCN(Cc1ccccc1)CC2` (as salt: hydrochloride) [Example 209, 5-[1-(Phenylmethyl)-4-piperidinyl]-1-[3-(phenylmethyl)-2,3,4,5-tetrahydro-1H-3-benzazepin-7-yl]-1-pentanone Dihydrochloride] yielded a melting point of 208 to 210 °C.

On to `Cc1ccccc1CN1CCC(CCCC(=O)c2ccc3c(c2)CCNCC3)CC1` (as salt: hydrochloride) [Example 236, 4-[1-[(2-Methylphenyl)methyl]-4-piperidinyl]-1-(2,3,4,5-tetrahydro-1H-3-benzazepin-7-yl)-1-butanone Dihydrochloride], for which the melting point is 213 to 216 °C (dec.).

As for `CCN(CC)CCN1CCc2ccc(C(=O)CCCC3CCN(Cc4ccccc4C)CC3)cc2CC1` (as salt: hydrochloride) [Example 244, 1-[3-(2-Diethyaminoethyl)-2,3,4,5-tetrahydro-1H-3-benzazepin-7-yl]-4-[1-[(2-methylphenyl)methyl]-4-piperidinyl]-1-butanone Trihydrochloride], the melting point fell in the range of 211 to 213 °C.

Turning to `Cc1ccccc1CN1CCc2ccc(C(=O)CCCC3CCN(Cc4ccccc4C(N)=O)CC3)cc2CC1` (as salt: hydrochloride) [Example 254, 2-[[4-[4-[3-[(2-Methylphenyl)methyl]-2,3,4,5-tetrahydro-1H-3-benzazepin-7-yl]-4-oxobutyl]-1-piperidinyl]methyl]benzamide Dihydrochloride], the melting point is 201 to 220 °C (dec.).

Consider `Cc1ccccc1CN1CCc2ccc(C(=O)CCCC3CCNCC3)cc2CC1` (as salt: hydrochloride) [Example 255, 1-[3-(2-Methylphenyl)methyl]-2,3,4,5-tetrahydro-1H-3-benzazepin-7-yl]-4-(4-piperidinyl)-1-butanone Dihydrochloride], for which the melting point was 192 to 203 °C (dec.).

On to `Cc1ccccc1CN1CCc2ccc(C(=O)CCCC3CCN(Cc4ccccc4C(=O)N4CCN(C)CC4)CC3)cc2CC1` (as salt: hydrochloride) [Example 313, 4-[1-[[2-[(4-methyl-1-pipiperazinyl)carbonyl]phenyl]methyl]-4-piperidinyl]-1-[3[(2-methylphenyl)methyl]-2,3,4,5-tetrahydro-1H-3-benzazepin-7-yl]-1-butanone Trihydrochloride], for which the melting point is 186 to 193 °C (dec.).

`Cc1ccccc1CN1CCc2ccc(C(=O)CCCC3CCN(Cc4ccccc4C(=O)N4CCOCC4)CC3)cc2CC1` (as salt: hydrochloride) [Example 314, 1-[3-[(2-Methylphenyl)methyl]-2,3,4,5-tetrahydro-1H-3-benzazepin-7-yl]-4-[1-[[2-(morpholinocarbonyl)phenyl]methyl]-4-piperidinyl]-1-butanone Dihydrochloride] gave a melting point of 168 to 172 °C.

Consider `CC(=O)Nc1ccccc1CN1CCc2ccc(C(=O)CCCC3CCN(Cc4ccccc4Cl)CC3)cc2CC1` (as salt: hydrochloride) [Example 315, N-[2-[[7-[4-[1-[(2-chlorophenyl)methyl]-4-piperidinyl]butanoyl]-2,3,4,5-tetrahydro-1H-3-benzazepin-3-yl]methyl]phenyl]acetamide Dihydrochloride], for which the melting point is 138 to 144 °C.

In the case of `Nc1ccccc1CN1CCc2ccc(C(=O)CCCC3CCN(Cc4ccccc4Cl)CC3)cc2CC1` (as salt: hydrochloride) [Example 316, 1-[3-[(2-Aminophenyl)methyl]-2,3,4,5-tetrahydro-1H-3-benzazepin-7-yl]-4-[1-[(2-chlorophenyl)methyl]-4-piperidinyl]-1-butanone Trihydrochloride], the melting point was 155 to 164 °C (dec.).

With `O=C(O)c1cccc(CN2CCC(CCCC(=O)c3ccc4c(c3)CCN(Cc3ccccc3)CC4)CC2)c1` (as salt: salt) [Example 158, 3-[[4-[4-[3-(Phenylmethyl)-2,3,4,5-tetrahydro-1H-benzazepin-7-yl]-4-oxobutyl)-1-piperidinyl]methyl]benzoic acid triethylamine Salt], the melting point was 150 to 158 °C.
